The results in this text go back to patent US7371746B2, “1,2,4-Thiadiazole compounds and pests controlling composition containing the same” (Sumitomo Chemical Company Limited, priority 2003, dated 2008).

The assay concerns Aphis gossypii (cotton aphid). The assay can be described thus: Test Example 1: spray test on cucumber plants infested with cotton aphid. The class given is in vivo. To be noted: 144 h, 500 ppm active ingredient, spray liquid 20 ml/cup on cucumber plant, sixth day after the application. The protocol: The formulation of each of the present compounds (3), (4), (5), (6), (7), (8), (9), (10), (11), (14), (15a), (15b), (16a), (17a), (17b), (18a), (18b), (19), (20), (21) and (22) according to Formulation Example 5 was diluted with water so that the active ingredient concentration came to 500 ppm to prepare a spray liquid. The seeds of cucumber were planted in a polyethylene cup and it was grown until the first true leaf was developed. On the plant about twenty Aphis gossypii (cotton aphid) are allowed to be parasitic. On the next day, the above spray liquid was applied at a ratio of 20 ml/cup to the cucumber plant. On the sixth day after the application, the number of Aphis gossypii was examined, and the control value was determined by the following formula: Control value (%)={1−(Cb×Tai)/(Cai×Tb)}×100 wherein the variables in the formula have the following meanings: Cb: the number of insects before the treatment in the non-treated area; Cai: the number of insects at the time of observation in the non-treated area; Tb: the number of insects before the treatment in the treated area; and Tai: the number of insects at the time of observation in the treated area.
Take `CC#CCOc1nsc(N2CCCCC2)n1` [present compound (3), 3-(2-butynyloxy)-5-piperidino-1,2,4-thiadiazole]: the pest or weed control at 500 ppm was ≥ 90%.

With `CCC#CCOc1nsc(N2CCCCC2)n1` [present compound (4), 3-(2-pentynyloxy)-5-piperidino-1,2,4-thiadiazole], the pest or weed control at 500 ppm is ≥ 90%.

With `CC#CCOc1nsc(N2CCCCC2C)n1` (stereo not drawn) [present compound (5), 3-(2-butynyloxy)-5-(2-methylpiperidino)-1,2,4-thiadiazole], the pest or weed control at 500 ppm was ≥ 90%.

Turning to `CCC#CCOc1nsc(N2CCCCC2C)n1` (stereo not drawn) [present compound (6), 3-(2-pentynyloxy)-5-(2-methylpiperidino)-1,2,4-thiadiazole], the pest or weed control at 500 ppm is ≥ 90%.

Consider `CC#CCOc1nsc(N2CCCC(C)C2)n1` (stereo not drawn) [present compound (7), 3-(2-butynyloxy)-5-(3-methylpiperidino)-1,2,4-thiadiazole], for which the pest or weed control at 500 ppm is ≥ 90%.

As for `CCC#CCOc1nsc(N2CCCC(C)C2)n1` (stereo not drawn) [present compound (8), 3-(2-pentynyloxy)-5-(3-methylpiperidino)-1,2,4-thiadiazole], the pest or weed control at 500 ppm is ≥ 90%.

As for `CC#CCOc1nsc(N2CCOCC2)n1` [present compound (9), 3-(2-butynyloxy)-5-morpholino-1,2,4-thiadiazole], the pest or weed control at 500 ppm was ≥ 90%.

With `CCC#CCOc1nsc(N2CCOCC2)n1` [present compound (10), 3-(2-pentynyloxy)-5-morpholino-1,2,4-thiadiazole], the pest or weed control at 500 ppm was ≥ 90%.

Take `CC#CCOc1nsc(N2CCC(C)CC2)n1` [present compound (11), 3-(2-butynyloxy)-5-(4-methylpiperidino)-1,2,4-thiadiazole]: the pest or weed control at 500 ppm is ≥ 90%.

`CCC#CCOc1nsc(N2CCCCCC2)n1` [present compound (14), 3-(2-pentynyloxy)-5-hexamethyleneimino-1,2,4-thiadiazole]: the pest or weed control at 500 ppm was ≥ 90%.

With `CC#CCOc1nsc(N2CC(C)CC(C)C2)n1` (stereo not drawn) [present compound (15a), 3-(2-butynyloxy)-5-(3,5-dimethylpiperidino)-1,2,4-thiadiazole], the pest or weed control at 500 ppm was ≥ 90%.

Regarding `CCC#CCOc1nsc(N2CC(C)CC(C)C2)n1` (stereo not drawn) [present compound (16a), 3-(2-pentynyloxy)-5-(3,5-dimethylpiperidino)-1,2,4-thiadiazole], the pest or weed control at 500 ppm was ≥ 90%.

Turning to `CC#CCOc1nsc(N2CC(C)OC(C)C2)n1` (stereo not drawn) [present compound (17a), 3-(2-butynyloxy)-5-(2,6-dimethylmorpholino)-1,2,4-thiadiazole], the pest or weed control at 500 ppm is ≥ 90%.

As for `CCC#CCOc1nsc(N2CC(C)OC(C)C2)n1` (stereo not drawn) [present compound (18a), 3-(2-pentynyloxy)-5-(2,6-dimethylmorpholino)-1,2,4-thiadiazole], the pest or weed control at 500 ppm is ≥ 90%.

`CC#CCOc1nsc(N2CC(CC)CC(CC)C2)n1` (stereo not drawn) [present compound (19), 3-(2-butynyloxy)-5-(3,5-diethylpiperidino)-1,2,4-thiadiazole]: the pest or weed control at 500 ppm was ≥ 90%.

With `C#CCOc1nsc(N2CC(C)CC(C)C2)n1` (stereo not drawn) [present compound (20), 3-(2-propynyloxy)-5-(3,5-dimethylpiperidino)-1,2,4-thiadiazole], the pest or weed control at 500 ppm is ≥ 90%.

Consider `CC#CC(C)Oc1nsc(N2CC(C)CC(C)C2)n1` (stereo not drawn) [present compound (21), 3-(1-methyl-2-butynyloxy)-5-(3,5-dimethylpiperidino)-1,2,4-thiadiazole], for which the pest or weed control at 500 ppm is ≥ 90%.

`CC#CCOc1nsc(N2CCCC(C(F)(F)F)C2)n1` (stereo not drawn) [present compound (22), 3-(2-butynyloxy)-5-(3-trifluoromethylpiperidino)-1,2,4-thiadiazole]: the pest or weed control at 500 ppm was ≥ 90%.

Broadly, the pest or weed control is the degree to which the test organism was suppressed or injured, in per cent. High values mean strong suppression, low ones weak suppression.
